Measurements: patent US20020071842A1, “Soluble CD1 compositions and uses thereof” (priority 2000, published 2002)

What was measured:
Experiment in all cases: Plate-bound mCD1d fusion protein hybridoma stimulation assay (IL-2 ELISA)
Assay type in all cases: cell-based, mouse
24.8.A hybridoma = conditions: for IL-2 secretion: 24.8 A NKT hybridoma, plate-bound mCD1d-IgGFc2a fusion protein preincubated with lipid antigen; for IL-2 response to mCD1d fusion protein pre-treated with purified or synthetic lipid: 24.8.A hybridoma, compared to untreated or buffer treated fusion protein
Description: (§1) The CD1d-restricted T cell clones 24.7, 24.8, 24.9 (NKT cell) and 14S.6, 14S.7, 14S.10, and 14S.15 (diverse TCRs) were all derived from spleen of wild type C57BL/6 mice, as described previously (Behar, S. M. et al., J. Immunol., 162:161-7 (1999)). To generate T cell hybridomas, the activated T cells were fused to the aminopterin-sensitive BW5147 αβTCR^− thymoma cell line using PEG1500, and hybrids were selected in HAT medium (Life Technologies, Gaithersburg, Md.). Resulting TT hybridomas were tested for recognition of RMA-S cells transfected with mCD1D1 compared to untransfected RMA-S cells, as described below. […] The hybridomas are distinguished from the original T cell clones by the addition of a letter to their names. The KT/7, KT/12, KT/22, and KT/23 and Vβ/9 NKT cell hybridomas were derived from NK1.1^+ T cells enriched from spleen of C57BL/6 mice by depletion of CD8+ T cells, naive T cells, and B cells by mAbs (anti-B220, CD8, and CD62L, or anti-CD8α, CD8β, and Me114) bound to magnetic microbeads, or to plastic. The purified cells were stimulated either by the anti-CD3 KT3 mAb (KT/7, KT/12, KT/22, KT/23), or by an anti-Vβ8.2 mAb (Vβ/9), and addition of IL-2 or IL-2 and IL-7. After 4-5 days of culture the cells were fused with BW5147 thymoma cells. The VII68, VIII24, XVI9, and XV104 diverse TCR hybridomas were generated from CD4^+ T cells from class 110 mice, as described previously (Cardell, S. et al., J. Exp. Med., 182:993-1004 (1995)). The DN32D3 hybridoma was derived as described (Lantz, O., and Bendelac, A., J. Exp. Med., 180:1097-106 (1994).
(§2) To test for recognition of the mCD1d fusion protein and purified or synthetic antigens, 96 well protein A coated plates (Pierce Chemical Company) were incubated with 400-600 ng/well of the fusion protein or a negative control IgG2a antibody, RPC5.4 or UPC10, in PBS, at pH 7.2. Lipid antigens were diluted into PBS and added where specified at the indicated molar ratio of antigen to fusion protein, (when not specified the ratio was 40:1). Protein A plates containing the fusion protein and antigen were incubated 24-48 hr at 37° C., then washed three times with 200 μl/well sterile PBS, pH 7.2, and two times with 200 μl/well sterile culture medium (containing RPMI supplemented with L-glutamine and penicillin/streptomycin, Life Technologies, Gaithersburg, Md., and 10% bovine calf serum, Hyclone Laboratories, Logan, Utah). For assays in which the PI was phospholipase treated, it was first diluted into 0.01M Tris, 0.15M NaCl, pH 7.5, containing 0.25 U PI-specific phospholipase C or 0.5 U phospholipase D (Sigma, St Louis, Mo.), and incubated 30 minutes at room temperature, then added to the protein A plates as described above. For assays in which the pH was varied during antigen incubation with the fusion protein, the fusion protein and α-GalCer were diluted into a 20 mM citrate/phosphate buffer of the specified pH, which contained 0.15 M NaCl, and after incubation, the samples were neutralized by addition of 1M Tris, pH 7.5. Hybridoma cells were added to fusion protein/antigen treated plates at a concentration of 1×10^5 cells/well, in a total volume of 150 μl/well. Assays were performed using 2-6 replicate wells. In some assays, an anti-mCD1d blocking antibody (19G11) was included at a final concentration of 20 μg/ml. The plates were incubated at 37° C. for 16-20 hr, and culture supernatants were withdrawn for analysis. Each experiment was performed at least three times.
(§3) IL-2 secreted in the hybridoma stimulation assays was quantitated in a double antibody sandwich ELISA, by comparison to a standard curve of purified murine IL-2 (Pharmingen, San Diego, Calif.). Hybridoma plate stimulation supernatants (used either neat or diluted) and serially diluted IL-2 standards were added to 96 well ELISA plates coated with a rat anti-mouse IL-2 capture antibody (Pharmingen).

14S.10.C hybridoma = conditions: 14S.10 C diverse TCR hybridoma; plate-bound mCD1d-IgGFc2a fusion protein preincubated with lipid antigen
Description: as §1, §2
as §3, with “(Pharmingen). […]” for “(Pharmingen).”

14S.15.A hybridoma = conditions: 14S.15.A diverse TCR hybridoma; plate-bound mCD1d-IgGFc2a fusion protein preincubated with lipid antigen
Description: as §1, §2
as §3, with “(Pharmingen). […]” for “(Pharmingen).”

14S.6.A hybridoma = conditions: 14S.6.A diverse TCR hybridoma; plate-bound mCD1d-IgGFc2a fusion protein preincubated with lipid antigen
Description: as §1, §2
as §3, with “(Pharmingen). […]” for “(Pharmingen).”

14S.7.N hybridoma = conditions: 14S.7.N diverse TCR hybridoma; plate-bound mCD1d-IgGFc2a fusion protein preincubated with lipid antigen
Description: as §1, §2
as §3, with “(Pharmingen). […]” for “(Pharmingen).”

24.7.C hybridoma = conditions: 24 7.C NKT hybridoma; plate-bound mCD1d-IgGFc2a fusion protein preincubated with lipid antigen
Description: as §1, §2
as §3, with “(Pharmingen). […]” for “(Pharmingen).”

24.9.E hybridoma = conditions: for IL-2 secretion: 24.9 E NKT hybridoma, plate-bound mCD1d-IgGFc2a fusion protein preincubated with lipid antigen
Description: as §1, §2
as §3, with “(Pharmingen). […]” for “(Pharmingen).”

DN32D3 hybridoma = conditions: DN32D3 NKT hybridoma; plate-bound mCD1d-IgGFc2a fusion protein preincubated with lipid antigen
Description: as §1, §2
as §3, with “(Pharmingen). […]” for “(Pharmingen).”

KT/12 hybridoma = conditions: KT/12 NKT hybridoma; plate-bound mCD1d-IgGFc2a fusion protein preincubated with lipid antigen
Description: as §1, §2
as §3, with “(Pharmingen). […]” for “(Pharmingen).”

KT/22 hybridoma = conditions: KT/22 NKT hybridoma; plate-bound mCD1d-IgGFc2a fusion protein preincubated with lipid antigen
Description: as §1, §2
as §3, with “(Pharmingen). […]” for “(Pharmingen).”

KT/23 hybridoma = conditions: KT/23 NKT hybridoma; plate-bound mCD1d-IgGFc2a fusion protein preincubated with lipid antigen
Description: as §1, §2
as §3, with “(Pharmingen). […]” for “(Pharmingen).”

KT/7 hybridoma = conditions: KT/7 NKT hybridoma; plate-bound mCD1d-IgGFc2a fusion protein preincubated with lipid antigen
Description: as §1, §2
as §3, with “(Pharmingen). […]” for “(Pharmingen).”

VII68 hybridoma = conditions: VII68 diverse TCR hybridoma; plate-bound mCD1d-IgGFc2a fusion protein preincubated with lipid antigen
Description: as §1, §2
as §3, with “(Pharmingen). […]” for “(Pharmingen).”

VIII24 hybridoma = conditions: VIII24 diverse TCR hybridoma; plate-bound mCD1d-IgGFc2a fusion protein preincubated with lipid antigen
Description: as §1, §2
as §3, with “(Pharmingen). […]” for “(Pharmingen).”

Vβ/9 hybridoma = conditions: Vβ/9 NKT hybridoma; plate-bound mCD1d-IgGFc2a fusion protein preincubated with lipid antigen
Description: as §1, §2
as §3, with “(Pharmingen). […]” for “(Pharmingen).”

XV104 hybridoma = conditions: XV104 diverse TCR hybridoma; plate-bound mCD1d-IgGFc2a fusion protein preincubated with lipid antigen
Description: as §1, §2
as §3, with “(Pharmingen). […]” for “(Pharmingen).”

XV19 hybridoma = conditions: XV19 diverse TCR hybridoma; plate-bound mCD1d-IgGFc2a fusion protein preincubated with lipid antigen
Description: as §1, §2
as §3, with “(Pharmingen). […]” for “(Pharmingen).”

Row | Substance | IL-2 secretion (24.8.A hybridoma) | IL-2 secretion (14S.10.C hybridoma) | IL-2 secretion (14S.15.A hybridoma) | IL-2 secretion (14S.6.A hybridoma) | IL-2 secretion (14S.7.N hybridoma) | IL-2 secretion (24.7.C hybridoma) | IL-2 response to mCD1d fusion protein pre-treated with purified or synthetic lipid (24.9.E hybridoma; 24.9.E hybridoma) | IL-2 secretion (24.9.E hybridoma) | IL-2 secretion (DN32D3 hybridoma) | IL-2 secretion (KT/12 hybridoma) | IL-2 secretion (KT/22 hybridoma) | IL-2 secretion (KT/23 hybridoma) | IL-2 secretion (KT/7 hybridoma) | IL-2 secretion (VII68 hybridoma) | IL-2 secretion (VIII24 hybridoma) | IL-2 secretion (Vβ/9 hybridoma) | IL-2 secretion (XV104 hybridoma) | IL-2 secretion (XV19 hybridoma) | IL-2 response to mCD1d fusion protein pre-treated with purified or synthetic lipid (24.8.A hybridoma)
1 | gangliotriosyl ceramide [aGM2] | + (“+” indicates 50-250 pg/ml) | 0 (A “0” indicates a mean of less than 50 pg/ml IL-2 was secreted) | 0 (A “0” indicates a mean of less than 50 pg/ml IL-2 was secreted) | 0 (A “0” indicates a mean of less than 50 pg/ml IL-2 was secreted) | 0 (A “0” indicates a mean of less than 50 pg/ml IL-2 was secreted) | 0 (A “0” indicates a mean of less than 50 pg/ml IL-2 was secreted) | not recognized | 0 (A “0” indicates a mean of less than 50 pg/ml IL-2 was secreted) | 0 (A “0” indicates a mean of less than 50 pg/ml IL-2 was secreted) | 0 (A “0” indicates a mean of less than 50 pg/ml IL-2 was secreted) | 0 (A “0” indicates a mean of less than 50 pg/ml IL-2 was secreted) | 0 (A “0” indicates a mean of less than 50 pg/ml IL-2 was secreted) | 0 (A “0” indicates a mean of less than 50 pg/ml IL-2 was secreted) | 0 (A “0” indicates a mean of less than 50 pg/ml IL-2 was secreted) | 0 (A “0” indicates a mean of less than 50 pg/ml IL-2 was secreted) | 0 (A “0” indicates a mean of less than 50 pg/ml IL-2 was secreted) | 0 (A “0” indicates a mean of less than 50 pg/ml IL-2 was secreted) | 0 (A “0” indicates a mean of less than 50 pg/ml IL-2 was secreted) | –
2 | phosphatidylcholine [PC] | + (“+” indicates 50-250 pg/ml) | 0 (A “0” indicates a mean of less than 50 pg/ml IL-2 was secreted) | 0 (A “0” indicates a mean of less than 50 pg/ml IL-2 was secreted) | 0 (A “0” indicates a mean of less than 50 pg/ml IL-2 was secreted) | 0 (A “0” indicates a mean of less than 50 pg/ml IL-2 was secreted) | 0 (A “0” indicates a mean of less than 50 pg/ml IL-2 was secreted) | – | 0 (A “0” indicates a mean of less than 50 pg/ml IL-2 was secreted) | 0 (A “0” indicates a mean of less than 50 pg/ml IL-2 was secreted) | 0 (A “0” indicates a mean of less than 50 pg/ml IL-2 was secreted) | 0 (A “0” indicates a mean of less than 50 pg/ml IL-2 was secreted) | 0 (A “0” indicates a mean of less than 50 pg/ml IL-2 was secreted) | 0 (A “0” indicates a mean of less than 50 pg/ml IL-2 was secreted) | 0 (A “0” indicates a mean of less than 50 pg/ml IL-2 was secreted) | 0 (A “0” indicates a mean of less than 50 pg/ml IL-2 was secreted) | 0 (A “0” indicates a mean of less than 50 pg/ml IL-2 was secreted) | 0 (A “0” indicates a mean of less than 50 pg/ml IL-2 was secreted) | 0 (A “0” indicates a mean of less than 50 pg/ml IL-2 was secreted) | did not reproducibly significantly enhance reactivity
3 | phosphatidylserine [PS] | + (“+” indicates 50-250 pg/ml) | 0 (A “0” indicates a mean of less than 50 pg/ml IL-2 was secreted) | 0 (A “0” indicates a mean of less than 50 pg/ml IL-2 was secreted) | 0 (A “0” indicates a mean of less than 50 pg/ml IL-2 was secreted) | 0 (A “0” indicates a mean of less than 50 pg/ml IL-2 was secreted) | 0 (A “0” indicates a mean of less than 50 pg/ml IL-2 was secreted) | – | 0 (A “0” indicates a mean of less than 50 pg/ml IL-2 was secreted) | 0 (A “0” indicates a mean of less than 50 pg/ml IL-2 was secreted) | 0 (A “0” indicates a mean of less than 50 pg/ml IL-2 was secreted) | 0 (A “0” indicates a mean of less than 50 pg/ml IL-2 was secreted) | 0 (A “0” indicates a mean of less than 50 pg/ml IL-2 was secreted) | 0 (A “0” indicates a mean of less than 50 pg/ml IL-2 was secreted) | 0 (A “0” indicates a mean of less than 50 pg/ml IL-2 was secreted) | 0 (A “0” indicates a mean of less than 50 pg/ml IL-2 was secreted) | 0 (A “0” indicates a mean of less than 50 pg/ml IL-2 was secreted) | 0 (A “0” indicates a mean of less than 50 pg/ml IL-2 was secreted) | 0 (A “0” indicates a mean of less than 50 pg/ml IL-2 was secreted) | did not reproducibly significantly enhance reactivity
